Assay results from patent publication US20230322722A1, “MODULATORS OF MYC FAMILY PROTO-ONCOGENE PROTEIN” (Nalo Therapeutics, priority 2020, published 2023).

How the values were obtained:
Assay type in all cases: cell-based
MycN protein = target: T1, MycN protein (Homo sapiens, UniProt P04198); test: Degradation of MycN protein, Western blot, SKNBE2 cells (Example 160)
T1 construct: either 2×10^6 of L-363 (human leukemia cell line) or SKNBE2 (neuroblastoma cell line) cells; endogenous in cells; host or cells: SKNBE2 / SK-N-BE(2) neuroblastoma cells
T1 sequence (P04198 1-464): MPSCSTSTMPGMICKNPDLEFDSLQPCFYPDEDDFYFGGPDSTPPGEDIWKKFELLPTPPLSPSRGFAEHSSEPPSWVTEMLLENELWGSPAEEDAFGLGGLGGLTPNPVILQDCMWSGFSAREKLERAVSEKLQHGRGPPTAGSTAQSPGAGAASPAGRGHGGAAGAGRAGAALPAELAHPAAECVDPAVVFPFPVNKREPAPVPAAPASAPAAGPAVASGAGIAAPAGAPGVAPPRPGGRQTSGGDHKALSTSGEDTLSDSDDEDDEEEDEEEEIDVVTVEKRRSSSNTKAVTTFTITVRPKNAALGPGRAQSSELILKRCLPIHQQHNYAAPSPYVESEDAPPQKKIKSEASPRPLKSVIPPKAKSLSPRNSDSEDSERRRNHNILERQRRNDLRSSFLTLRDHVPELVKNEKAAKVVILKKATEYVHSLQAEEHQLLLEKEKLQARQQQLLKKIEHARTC
Experimental: (§1) In a T150 flask was plated either 2×10^6 of L-363 (human leukemia cell line) or SKNBE2 (neuroblastoma cell line) cells in a total of 30 mL containing Roswell Park Memorial Institute (RPMI) 1640 Medium (Thermo Fisher, Cat. #11875-085), 10% Fetal Bovine Serum (FBS, Thermo Fisher: Cat. #10437-028), 1% Penicillin/streptomycin (Thermo Fisher: Cat. #10378016), and 1% Amophotericin B (Thermo Fisher, Cat. #15290026). The cells were split every 72 hours by reseeding the L-363 or SKNBE2 cells, and the passage number was noted. It is noteworthy that cell cultures that were above 40 passages were not used, and most experiments were done with cells of less than 30 passages.
(§2) In a 6-well cell culture plate, a total of 3 mL of either 1×10^6 cells/mL of L-363 or SKNBE2 cells were seeded, resulting in a total of 3×10^6 cells per well. To each well containing 3 mL of either L-363 or SKNBE2 cell line was added 6 uL of MycN modulating compound (1 mM) and the resulting plate was shaken from left to right, and not swirled. After 6 hours, the cells were placed in a 15 mL falcon tube and spun at 500 Gs at 4° C. in a swinging bucket centrifuge. The medium was then carefully removed without disturbing the pellet. The pellet was then washed with 3 mLs of chilled phosphate buffered saline (PBS) and subjected to the spin cycle. PBS was then removed and the pellet was lysed in 200 uL of radioimmunoprecipitation (RIPA) lysis buffer (Thermo Fisher: Cat. #899000) that is supplemented with protease and phosphatase inhibitors (Thermo Fisher: Cat. #A32959). The cell lysate was then subjected to spinning in a centrifuge for 10 minutes at 13000 G at 4° C. The supernatant was then carefully transferred to a fresh eppendorf tube without disturbing the pellet (˜180 uL). The protein concentration of the cell lysate was then determined by using a bicinchoninic acid (BCA assay) according to manufacturer's protocol (Thermo Fisher: Cat. #23227).
(§3) Cell lysate, approximately 25 ug-30 ug, was loaded per well in a 4-20% polyacrylamide gel (Biorad. Cat. #5671094). After running the dye front off of the gel, the gel was transferred to a nitrocellulose membrane (Biorad: Cat. #1704159) using the transblot turbo system (Biorad: Cat. #1704150) according to manufacturer's protocol. After transferring for 30 minutes, the membrane was blocked with 5% BSA for 1 hour at room temperature. The BSA was then washed off and the primary antibody of choice (1:500) was added, and the membrane was incubated with the primary antibody at 4° C. for overnight. The next morning, the primary antibody was removed and the membrane was washed with 1×-TBST for 10 minutes and repeated three more times. Following the last wash, a secondary antibody (Molecular Devices. Cat. #R8209 or R8208) was added at 1:5000 dilution and incubated for 1 hour at room temperature. Following the incubation with the secondary antibody, the membrane was washed with 1×-TBST for 10 minutes and repeated three more times. Following the last wash, the membrane was washed with de-ionized water twice and dried for at least two hours. Once the membrane is completely dry, the Molecular Devices Spectra Max western system was used to observe the bands. The western image was saved and the band density was measured with ImageJ software.

MycC protein = target: T2, MycC protein (Homo sapiens, UniProt P01106); test: Degradation of MycC protein, Western blot, L-363 cells (Example 160); conditions: 6 h
T2 construct: either 2×10^6 of L-363 (human leukemia cell line) or SKNBE2 (neuroblastoma cell line) cells; endogenous in cells; host or cells: L-363 / L363 human leukemia cells
T2 sequence (P01106 whole entry): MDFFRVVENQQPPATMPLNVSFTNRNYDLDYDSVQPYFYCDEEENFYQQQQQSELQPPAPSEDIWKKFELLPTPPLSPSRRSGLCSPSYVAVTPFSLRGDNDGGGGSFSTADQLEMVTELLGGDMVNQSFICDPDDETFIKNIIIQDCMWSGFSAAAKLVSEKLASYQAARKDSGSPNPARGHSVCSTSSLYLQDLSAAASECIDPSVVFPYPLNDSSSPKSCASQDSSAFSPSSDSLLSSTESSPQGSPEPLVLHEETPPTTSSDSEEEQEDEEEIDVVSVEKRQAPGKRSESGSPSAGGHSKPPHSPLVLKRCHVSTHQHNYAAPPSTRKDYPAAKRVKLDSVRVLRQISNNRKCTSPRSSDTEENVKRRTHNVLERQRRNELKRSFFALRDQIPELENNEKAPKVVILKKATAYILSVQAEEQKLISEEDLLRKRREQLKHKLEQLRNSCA
Experimental: as §1, §2, §3

MycN protein (n-myc) = target: T3, MycN protein (n-myc) (Homo sapiens, UniProt P04198); test: Degradation of MycN protein, 24 h treatment, JESS Western, SK-N-BE(2) cells (Example 161); conditions: SKNBE2 cells
T3 construct: either 2×10^6 of L-363 (human leukemia cell line) or SKNBE2 (neuroblastoma cell line) cells; endogenous in cells; host or cells: SKNBE2 / SK-N-BE(2) neuroblastoma cells
T3 sequence (P04198 1-464): T1 sequence (P04198 1-464)
Experimental: (§4) For L363 cells (suspension), 1E6 cells were plated into each well of a 6 well plate. For SK-N-BE(2) cells (adherent), 5E5 cells were plated into each well of a 6 well dish. […] All compounds were diluted to 10 mM in DMSO. Cells were treated with the compound for 24 hrs, then for both cell types, media containing cells were removed from wells into a 15 ml centrifuge tube, and remaining adherent SK-N-BE(2) cells were also scraped from the wells into the appropriate tubes. Tubes were centrifuged, cells were washed with PBS then re-centrifuged to pellet cells. A RIPA buffer cocktail was added to the cells on ice for 5 mins. Cell lysates were clarified by centrifugation and stored at −80 degrees until required. BCA assay was performed on each lysate to determine the protein concentration.
(§5) For validation studies of antibodies, lysates and antibodies were used at a number of concentrations (Lysates: 2, 1, 0.2 mg/ml; Antibodies: 1 in 50, 1 in 200 dilution). Once an appropriate lysate concentration and antibody concentration was determined, samples were screened in the JESS technology (Protein Simple, San Jose, CA—https://www.proteinsimple.com/jess.html).
(§6) Target protein antibodies (n-myc and c-myc) were detected in the chemi-luminescence channel and loading controls (tubulin and GAPDH) were detected using a Near Infra Red (NIR) labeled secondary antibody.
(§7) For SK-N-EB2 adherent cells, 5E5 cells in 1.9 mls media were plated into 6 well dishes and incubated for 24 hrs. […] Cells were scrapped off the plate, centrifuged, washed with PBS, centrifuged, then a RIPA buffer cocktail added to the cells (100 ul), centrifuged and stored at −80 for later analysis. For L363 suspension cells, 1E6 cells were plated into […] (950 ul media) and incubated for 24 hrs. […] Cells were aspirated into tubes, centrifuged, washed with PBS, centrifuged, then a RIPA buffer cocktail added to the cells (100 ul), centrifuged and stored at −80 for later analysis.
(§8) For Western blot, a BCA (total protein) assay was run on all samples, these were then run in batches of 5 compounds plus control (DMSO) on each Western blot run—n-myc and c-myc were run in separate experiments in the chemiluminescence channel. Both tubulin and GAPDH were run as loading controls in all lanes in the near infra red channel.

MycC protein (c-myc) = target: T4, MycC protein (c-myc) (Homo sapiens, UniProt P01106); test: Degradation of MycC protein, 24 h treatment, JESS Western, L363 cells (Example 161); conditions: L-363 cells
T4 construct: either 2×10^6 of L-363 (human leukemia cell line) cells; endogenous in cells; host or cells: L-363 / L363 human leukemia cells
T4 sequence (P01106 whole entry): as above
Experimental: as §4, §5, §6, §7, §8

CN(c1nccc(Nc2cc(C3CC3)[nH]n2)n1)C1CCC(CC(=O)NC2Cc3cc(F)c(F)cc3C2)CC1 (stereo not drawn) [Compound 134, 2-(4-((4-((5-cyclopropyl-1H-pyrazol-3-yl)amino)pyrimidin-2-yl)(methyl)amino)cyclohexyl)-N-(5,6-difluoro-2,3-dihydro-1H-inden-2-yl)acetamide]
inhibition at 2 µM (MycN protein; 6 h): 20 to 49%
inhibition at 2 µM (MycC protein): 80 to 100%

Cn1nnc2cc(C(=O)N[C@H]3CC[C@H](N(C)c4nccc(Nc5cc(C6CC6)[nH]n5)n4)CC3)ccc21 [Compound 139, N-((1R,4R)-4-((4-((5-cyclopropyl-1H-pyrazol-3-yl)amino)pyrimidin-2-yl)(methyl)amino)cyclohexyl)-1-methyl-1H-benzo[d][1,2,3]triazole-5-carboxamide]
inhibition at 2 µM (MycN protein; SKNBE2, 6 h): 80 to 100%
inhibition at 2 µM (MycC protein): 80 to 100%

CN(c1nccc(Nc2cc(C3CC3)[nH]n2)n1)[C@H]1CC[C@H](NC(=O)c2cccc(C#N)c2)CC1 [Compound 136, 3-cyano-N-((1R,4R)-4-((4-((5-cyclopropyl-1H-pyrazol-3-yl)amino)pyrimidin-2-yl)(methyl)amino)cyclohexyl)benzamide]
inhibition at 2 µM (MycN protein; 6 h): 50 to 79%
inhibition at 2 µM (MycC protein): 80 to 100%

CN(c1nccc(Nc2cc(C3CC3)[nH]n2)n1)[C@H]1CC[C@H](NC(=O)Cc2ccnc(C(F)(F)F)c2)CC1 [Compound 123, N-((1R,4R)-4-((4-((5-cyclopropyl-1H-pyrazol-3-yl)amino)pyrimidin-2-yl)(methyl)amino)cyclohexyl)-2-(2-(trifluoromethyl)pyridin-4-yl)acetamide]
inhibition at 2 µM (MycN protein; SKNBE2, 6 h): 20 to 49%
inhibition at 2 µM (MycC protein): 20 to 49%

CN(c1nccc(Nc2cc(C3CC3)[nH]n2)n1)[C@H]1CC[C@H](NS(=O)(=O)c2ccc(C#N)cn2)CC1 [Compound 156, 5-cyano-N-((1R,4R)-4-((4-((5-cyclopropyl-1H-pyrazol-3-yl)amino)pyrimidin-2-yl)(methyl)amino)cyclohexyl)pyridine-2-sulfonamide]
inhibition at 2 µM (MycN protein; 6 h): 50 to 79%
inhibition at 2 µM (MycC protein): 80 to 100%

CN(c1cc(C2CCCC2)[nH]n1)c1ccnc(N(C)[C@H]2CC[C@H](NC(=O)C3Cc4ccccc4C3)CC2)n1 [Compound 143, N-((1R,4R)-4-((4-((5-cyclopentyl-1H-pyrazol-3-yl)(methyl)amino)pyrimidin-2-yl)(methyl)amino)cyclohexyl)-2,3-dihydro-1H-indene-2-carboxamide]
inhibition at 2 µM (MycN protein; SKNBE2, 6 h): < 20%
inhibition at 2 µM (MycC protein): < 20%

CN(c1nccc(Nc2cc(C3CC3)[nH]n2)n1)[C@H]1CC[C@H](NC(=O)C2CCCC(C(F)(F)F)C2)CC1 (stereo partly drawn) [113 F1]
% Degradation of MycN (SKNBE2) 6 h, 2 μM (MycN protein): * (degradation <20%)
inhibition at 2 µM (MycC protein): 50 to 79%

CN(c1nccc(Nc2cc(C3CC3)[nH]n2)n1)[C@H]1CC[C@H](NC(=O)c2ccc(S(C)(=O)=O)cn2)CC1 [Compound 135, N-((1R,4R)-4-((4-((5-cyclopropyl-1H-pyrazol-3-yl)amino)pyrimidin-2-yl)(methyl)amino)cyclohexyl)-5-(methylsulfonyl)picolinamide]
inhibition at 2 µM (MycN protein; SKNBE2, 6 h): < 20%
inhibition at 2 µM (MycC protein): 80 to 100%

CN(c1cc(C2CCCC2)[nH]n1)c1ccnc(N(C)C2CCC(CC(=O)NC3Cc4ccc(C#N)cc4C3)CC2)n1 (stereo not drawn) [Compound 138, N-(5-cyano-2,3-dihydro-1H-inden-2-yl)-2-(4-((4-((5-cyclopentyl-1H-pyrazol-3-yl)(methyl)amino)pyrimidin-2-yl)(methyl)amino)cyclohexyl)acetamide]
inhibition at 2 µM (MycN protein; 6 h): < 20%
inhibition at 2 µM (MycC protein): < 20%

CN(c1nccc(Nc2cc(C3CC3)[nH]n2)n1)C1CC2(C1)CN(Cc1cc(F)cc(F)c1)C2 [Compound 26, N4-(5-Cyclopropyl-1H-pyrazol-3-yl)-N2-(2-(3,5-difluorobenzyl)-2-azaspiro[3.3]heptan-6-yl)-N2-methylpyrimidine-2,4-diamine]
inhibition at 1 µM (MycN protein (n-myc)): < 20%
inhibition at 6 µM (MycN protein (n-myc)): 20 to 49%
inhibition at 1 µM (MycC protein (c-myc)): < 20%
inhibition at 3 µM (MycC protein (c-myc)): < 20%
inhibition at 6 µM (MycC protein (c-myc)): 80 to 100%

CN(c1nccc(Nc2cc(C3CC3)[nH]n2)n1)C1CCN(Cc2cccc(S(C)(=O)=O)c2)CC1 [Compound 39, N4-(5-Cyclopropyl-1H-pyrazol-3-yl)-N2-methyl-N2-(1-(3-(methylsulfonyl)benzyl)piperidin-4-yl)pyrimidine-2,4-diamine]
inhibition at 3 µM (MycN protein (n-myc)): 80 to 100%
inhibition at 6 µM (MycN protein (n-myc)): 80 to 100%
inhibition at 1 µM (MycC protein (c-myc)): 50 to 79%
inhibition at 3 µM (MycC protein (c-myc)): 80 to 100%
inhibition at 6 µM (MycC protein (c-myc)): 80 to 100%

CN(c1nccc(Nc2cc(C3CC3)[nH]n2)n1)C1CCN(Cc2cc(F)cc(F)c2)CC1 [Compound 40, N4-(5-Cyclopropyl-1H-pyrazol-3-yl)-N2-(1-(3,5-difluorobenzyl)piperidin-4-yl)-N2-methylpyrimidine-2,4-diamine]
inhibition at 0.5 µM (MycN protein (n-myc); 0.5 μM): < 20%
inhibition at 1 µM (MycN protein (n-myc)): 20 to 49%
inhibition at 3 µM (MycN protein (n-myc)): 80 to 100%
inhibition at 6 µM (MycN protein (n-myc)): 80 to 100%
inhibition at 0.5 µM (MycC protein (c-myc); 0.5 μM): < 20%
inhibition at 1 µM (MycC protein (c-myc)): 80 to 100%
inhibition at 3 µM (MycC protein (c-myc)): 80 to 100%
inhibition at 6 µM (MycC protein (c-myc)): 80 to 100%
